# Test results from patent US6559158B1, “Use of methylnaltrexone and related compounds to treat chronic opioid use side affects” (UR Labs, Inc., priority 1997, dated 2003).
# Several values for one entry are separate records, joined by “and”; a condition that tells them apart may be missing. Equal values may be shown once. Entries after “also recorded” stand apart in the source; their conditions may differ. Read-outs that look alike come from different tables or passages of the source.
# Experiments:
# [1] = Example 1: peak plasma methylnaltrexone level (HPLC); type: in vivo, human
# Protocol: After each test drug administration, seven blood samples (5 ml each) were obtained at time 0, 5, 30 min, and 1, 2, 4, 8 h, and three urine samples were collected at time 0, 2, and 4 h. Plasma and urine methylnaltrexone levels were determined by an HPLC technique with a detection limit of 2 ng/ml (Kim et al., 1989; Yuan et al., Clin. Pharmacol Ther., 59:469-475 (1996); both herein incorporated by reference). […] Subjects' bowel movements were witnessed and recorded by a research nurse.
# [2] = test system: chronic methadone subjects; assay: Example 2: oral-cecal transit time (lactulose hydrogen breath test); type: in vivo, human
# Protocol: (§1) The oral-cecal transit time was assessed by the pulmonary hydrogen (H2) measurement technique, which measures pulmonary H2 that is produced when unabsorbed lactulose is fermented by colonic bacteria and excreted in the breath. This H2 production is reflected by a concomitant increase in breath H2 excretion. […] Dis. Sci., 32:829-832 (1987)). Hydrogen breath tests were conducted every 15 min until oral-cecal transit time was determined.
# The oral-cecal transit time was assessed as in Example 1.
# [3] = test system: chronic methadone subjects; assay: Example 3: oral methylnaltrexone, oral-cecal transit time; type: in vivo, human
# Protocol: as §1
# Twelve constipated adults (≦2 stool/week) were enrolled. […] Drug administrations were single-blinded to the subject.
# [4] = test system: chronic methadone subjects; assay: Example 3: oral methylnaltrexone, opioid withdrawal and adverse effects; details: oral 0.3-3.0 mg/kg
# Protocol: Since oral medication is a safer and more convenient way to deliver drugs than is intravenous administration, the efficacy of oral MNTX in relieving constipation in methadone maintained patients was evaluated. Twelve constipated adults (≦2 stool/week) were enrolled. Their daily methadone dose was 73.3±16.2 mg (41-100 mg), mean±SD (range). On day 1 at 9AM, subjects ingested 10 g lactulose (Solvay Pharmaceuticals) to assess oral-cecal transit time as described above, and a placebo capsule. On day 2 at 9AM, subjects again received lactulose, and a capsule containing methylnaltrexone (Mallinckrodt). Ascending oral methylnaltrexone doses (0.3, 1.0, and 3,0 mg/kg) were given to 3 groups of 4 subjects per group. Drug administrations were single-blinded to the subject. Laxation response and potential opioid withdrawal were recorded and blood samples were collected.
# [5] = test system: normal volunteers; assay: FIG. 5: oral-cecal transit time of normal volunteers given MNTX; type: in vivo, human; details: normal subjects, doses 2.1 mg/kg to 6.4 mg/kg (FIG. 5)
# Protocol: FIG. 5 is a comparison of oral-cecal transit times of normal volunteers and methadone maintenance subjects showing the increased responsiveness of chronic opioid patients to MNTX. At doses ranging from 2.1 mg/kg to 6.4 mg/kg, normal subjects experienced about a 15-20% reduction in oral-cecal transit time, while at a dose of 3.0 mg/kg, methadone subjects experienced a greater than 35% reduction in oral-cecal transit time.
# [6] = test system: morphine-induced changes in oral-cecal transit time; assay: Example 4: morphine-induced delay of oral-cecal transit time in subjects given opioids non-chronically; type: in vivo, human; details: 0.45 mg/kg methylnaltrexone plus 0.05 mg/kg morphine
# Protocol: After completion of the above three injections, we asked six of the subjects, beginning with those who had completed the study last, to return for a fourth injection (0.45 mg/kg methylnaltrexone plus 0.1 mg/kg morphine). This was done to evaluate the effects of methylnaltrexone with a higher does of morphine.
# Results of the hydrogen breath test after different injections were analyzed with the use of the Wilcoxon matched-pairs signed-rank test, with p<0.05 considered to be statistically significant.
# [7] = Example 4: pharmacokinetics of 0.45 mg/kg intravenous methylnaltrexone; details: per subject (1-12) and Mean ± SD
# Protocol: Sessions were separated by at least 1 week. Each session lasted approximately 7 hours, and the subjects received one of three injections: (1) placebo plus placebo, (2) placebo plus 0.05 mg/kg morphine, or (3) 0.45 mg/kg methylnaltrexone plus 0.05 mg/kg morphine. Injection I was given at the first session, and the subjects were blinded to the medication. Injections 2 and 3 were given in a random order, and the subjects and observers were blinded to the medication. Injection assignments were prepared by random selection on a computer and were sealed in envelopes.
# [8] = intravenous; cited from earlier work
# [9] = test system: normal volunteers; details: eight normal volunteers, cited from earlier work
# [10] = humans; cited from earlier work
# [11] = test system: chronic methadone subjects with methadone-induced constipation; assay: Example 2: double-blind placebo-controlled trial of intravenous methylnaltrexone, laxation response; details: for methylnaltrexone dose received (infusion stopped at bowel movement): mean±SD, range 0.01-0.37
structure (smiles),measurement,setting,value
"C[N@+]1(CC2CC2)CC[C@]23c4c5ccc(O)c4O[C@H]2C(=O)CC[C@@]3(O)[C@H]1C5 [methylnaltrexone, N-methylnaltrexone bromide]",Peak plasma methylnaltrexone level,"[1]; Subject 1, 0.45 mg/kg iv",1.65 µg/mL
same,Peak plasma methylnaltrexone level,"[1]; Subject 2, 0.45 mg/kg iv",1.10 µg/mL
same,Peak plasma methylnaltrexone level,"[1]; Subject 3, 0.05-0.15 mg/kg iv",0.25 µg/mL
same,Peak plasma methylnaltrexone level,"[1]; Subject 4, 0.05-0.15 mg/kg iv",0.53 µg/mL
same,oral-cecal transit time after study drug,"[2]; methylnaltrexone group n=11, Day 2, iv, mean±SD, range 30-105, baseline 132.3±36.0",54.5 ± 19.3 min
same,average change in oral-cecal transit time from baseline,"[2]; methylnaltrexone group n=11, P<0.001 vs placebo group",-77.7 ± 37.2 min
same,reduction in oral-cecal transit time,"[3]; methadone subjects, dose of 3.0 mg/kg (FIG. 5)",greater than 35%
same,dose-related reduction of oral-cecal transit times,"[3]; oral 0.3, 1.0, 3.0 mg/kg, p<0.05, Spearman rank correlation and linear regression",significant dose-response effect
same,opioid withdrawal,[4]; any subjects,no opioid withdrawal
same,abdominal cramping,[4]; most subjects,very mild abdominal cramping
same,adverse effects,[4],no adverse effects were reported
same,reduction in oral-cecal transit time,[5],15-20%
same,oral-cecal transit time,"[6]; 12 subjects, mean±SD, not significant vs baseline 104.6±31.1",106.3 ± 39.8 min
same,prevention of morphine-induced changes in oral-cecal transit time,[6]; p<0.01 vs morphine alone,97%
same,AUC,"[7]; human, in vivo, iv, 0.45 mg/kg, AUC, area under the plasma concentration-time curve from 0 to 6 hours",549 ng·h/mL
same,"AUC, area under the plasma concentration-time curve from 0 to 6 hours",[7],694 ng·h/mL and 595 ng·h/mL and 637 ng·h/mL and 588 ng·h/mL and 1013 ng·h/mL and 634 ng·h/mL and 587 ng·h/mL and 747 ng·h/mL and 677 ng·h/mL and 742 ng·h/mL and 658 ng·h/mL
same,"CL, total body clearance",[7],51.7 L/h and 61.6 L/h and 41.6 L/h and 62.2 L/h and 68.1 L/h and 28.4 L/h and 73.2 L/h and 43.0 L/h and 45.2 L/h and 46.5 L/h and 47.8 L/h and 60.1 L/h
same,"Cmax, peak free plasma concentration",[7],2111 ng/mL and 4309 ng/mL and 1921 ng/mL and 2418 ng/mL and 5471 ng/mL and 4076 ng/mL and 3443 ng/mL and 2993 ng/mL and 3059 ng/mL and 3119 ng/mL and 4033 ng/mL and 2640 ng/mL
same,"Fu, percentage of dose excreted unchanged in urine from 0 to 3 hours",[7],33.8% and 36.5% and 43.5% and 26.6% and 49.6% and 73.4% and 44.4% and 46.0% and 39.5% and 40.4% and 35.1% and 34.0%
same,"t1/2β, terminal half-life",[7],2.077 h and 2.71 h and 3.385 h and 3.968 h and 1.42 h and 1.56 h and 1.903 h and 2.53 h and 1.875 h and 1.772 h and 1.6 h and 1.46 h
same,elimination half-life,[8],approximately 2 h
same,side effects,[9]; doses of 0.64 to 1.25 mg/kg,transient orthostatic hypotension
same,side effects,[9]; doses up to 0.32 mg/kg,did not cause side effects
same,blood-brain barrier passage,[10],does not cross the blood-brain barrier
same,de-methylation,[10],do not appreciably de-methylate
same,methylnaltrexone dose received (infusion stopped at bowel movement),"[11]; Day 1, iv",0.09 ± 0.10 mg/kg
same,methylnaltrexone dose received (infusion stopped at bowel movement),"[11]; Day 2, iv",0.10 ± 0.10 mg/kg
same,Bowel movement Satisfaction,"[11]; MNTX group, end of study, listed as MNTX",Very satisfied; also recorded: Somewhat satisfied
same,satisfaction with bowel movement activity at the end of the study,[11]; methylnaltrexone group,all 11 subjects were satisfied
same,subjects whose stool was soft to loose and in large quantity,[11]; methylnaltrexone group,over 90%
